Results from paper PMC8866981 (Journal of Experimental Pharmacology, 2021).

Key:
HIV-1IIIB = assay type: cell-based, Human immunodeficiency virus type 1; settings: HIV-1IIIB infected MT-4 cells, 5 days, mean ± S.E.M (n=3)
[1] = test system: Human T-lymphocytic MT-4 cells; assay: Cytotoxicity test, MTT colorimetric assay; assay type: cell-based; settings: 5 days, percentage inhibition of cell growth, mean ± S.E.M (n=3)

In the case of `Cc1cn([C@H]2C[C@H](N=[N+]=[N-])[C@@H](CO)O2)c(=O)[nH]c1=O` [AZT, zidovudine], the “EmaxAV (maximum antiviral effect %, CPE inhibition %)” value (HIV-1IIIB) is reported as 83%.
In the case of `Cc1ccnc2c1NC(=O)c1cccnc1N2C1CC1` [NVP, nevirapine], the “EmaxC (maximum cytotoxic effect %)” value [1] is reported as greater than 35%.
